{
  "source": "patent US6455761B1",
  "about": "“Agrobacterium-mediated transformation of turnip rape” (Helsinki University Licensing Ltd. Oy, priority 1997, dated 2002)",
  "key": {"explants of turnip rape": {"test_system": "explants of turnip rape", "protocol": "(§1) Selection and regeneration. […] Thereafter the whole explants or cut callus pieces with the green nodules and primordia were transferred on hormone free MS medium, where nodules developed primordia and shoots. Silver nitrate in concentration 0-90 μM (0-15 mg/l) and porous paper tape for sealing of Petri dishes were used in transformation and regeneration of transgenic plants.\nShoot regeneration. Effects of different hormones on various explants of mature plants of turnip rape were tested in preliminary experiments to achieve sufficient shoot regeneration.\nSilver nitrate application and aeration. The use of silver nitrate in in vitro cultivation of turnip rape has often been reported as an essential factor for shoot regeneration (Chi et al. 1990; Hachey et al. 1991; Mukhopadhuay et al. 1992; Radke et al. 1992). […] We have examined the effect of silver nitrate on regeneration capacity of explants of turnip rape.\nSelection. To prevent Agrobacterium growth on the medium we used claforan (cefotaxim) 500 mg/l or carbenicillin 200 mg/l."}, "[1]": {"test_system": "turnip rape plants cv. Valtti and Sisu", "test": "Transgenic shoot regeneration under antibiotic selection", "protocol": "as §1\nSelection on kanamycin or hygromycin was applied immediately after co-cultivation of the explants with Agrobacteria, three days after beginning of the whole procedure. Antibiotics were used in concentrations 20-25 mg/l during all steps of regeneration and cultivation of transgenic plants.\nUsing nptII and hpt genes in transformation constructions provides the plants resistance to kanamycin and hygromycin, respectively. […] Because morfogenesis occurs mainly on the basal side of the stem segmets, explants are placed basal side down on the selection medium.\nTurnip rape plants cv. Valtti and Sisu were transformed with LBA4404 pGPTV-KAN-GUSint and LBA4404 pGPTV-HPT-GUSint.\nAnalysis of transformation. Green regenerated shoots were checked for GUS activity. Leaves or leaf pieces were prepared for histological GUS assay as described above."}, "[2]": {"test_system": "inflorescence stem segments of turnip rape plants", "test": "Effect of cultivation factors on transformation of inflorescence stem segments by Agrobacterium LBA4404pGPTV-KAN-GUSint (histological GUS assay)", "assay_type": "cell-based, Brassica rapa ssp. oleifera", "settings": "for Average %: average of cultivars"}, "Agrobacterium": {"test_system": "Agrobacterium", "settings": "5 mg/l (30 μM); MS medium during co-cultivation with plant explants", "source_text": "We have transformed inflorescence stem segments of turnip rape using different concentrations of silver nitrate and sealed plates with plant explants by parafilm or porous paper tape. Transformation efficiency was examined in histological GUS assay 4 days after co-cultivation. Transformation efficiency is shown in Table 4 as proportion of explants with blue inclusions in the calli per all explants (also in %)."}, "[3]": {"settings": "100 μM AS added in MS medium during inoculation and cocultivation, cv. Sisu"}, "[4]": {"settings": "100 μM AS added in MS medium during inoculation and cocultivation, cv. Valtti"}, "[5]": {"settings": "100 μM AS in MS medium and Agrobacterium grown one night with 100 μM acetosyringone, cv. Sisu"}, "[6]": {"settings": "100 μM AS in MS medium and Agrobacterium grown one night with 100 μM acetosyringone, cv. Valtti"}, "[7]": {"settings": "selection on 20 mg/l, cultivars Sisu and Valtti"}},
  "data": [
    {"smiles": "c1coc(CNc2ncnc3[nH]cnc23)c1", "note": "[kinetin]", "values": [
      {"measurement": "effect on shoot regeneration relative to BAP and NAA", "setting": "explants of turnip rape; data not shown", "value": "less effective than BAP and NAA"}
    ]},
    {"smiles": "CO/N=C(\\C(=O)N[C@@H]1C(=O)N2C(C(=O)O)=C(COC(C)=O)CS[C@H]12)c1csc(N)n1", "note": "[Claforan, cefotaxim]", "values": [
      {"measurement": "recovering of transgenic shoots after inoculation with Agrobacteria", "setting": "[1]; claforan used to prevent Agrobacterium growth", "value": "full block of recovering of transgenic shoots"},
      {"measurement": "decrease of shoot regeneration frequency compared to carbenicillin", "setting": "explants of turnip rape; claforan 500 mg/l vs carbenicillin 200 mg/l, data not shown", "value": "2-5 times"}
    ]},
    {"smiles": "CC1(C)S[C@@H]2[C@H](NC(=O)C(C(=O)O)c3ccccc3)C(=O)N2[C@H]1C(=O)O", "note": "(some centres unmarked) [carbenicillin]", "values": [
      {"measurement": "effect on regeneration", "setting": "explants of turnip rape; 200 mg/l, data not shown", "value": "does not have an apparent negative effect on regeneration"}
    ]},
    {"smiles": "COc1cc(C(C)=O)cc(OC)c1O", "note": "[AS, 3,5-dimethoxy-4-hydroxyacetophenon]", "values": [
      {"measurement": "Average %", "setting": "[2]; 100 μM AS added in MS medium during inoculation and cocultivation", "value": 41.6, "unit": "%"},
      {"measurement": "GUS +/all", "setting": "[2]; [3]", "value": "24/65"},
      {"measurement": "GUS +/all %", "setting": "[2]; [3]", "value": 36.9, "unit": "%"},
      {"measurement": "GUS +/all", "setting": "[2]; [4]", "value": "36/78"},
      {"measurement": "GUS +/all %", "setting": "[2]; [4]", "value": 46.2, "unit": "%"},
      {"measurement": "Average %", "setting": "[2]; 100 μM AS in MS medium and Agrobacterium grown one night with 100 μM acetosyringone", "value": 46.6, "unit": "%"},
      {"measurement": "GUS +/all", "setting": "[2]; [5]", "value": "29/65"},
      {"measurement": "GUS +/all %", "setting": "[2]; [5]", "value": 44.6, "unit": "%"},
      {"measurement": "GUS +/all", "setting": "[2]; [6]", "value": "35/72"},
      {"measurement": "GUS +/all %", "setting": "[2]; [6]", "value": 48.6, "unit": "%"}
    ]},
    {"smiles": "NC[C@H]1O[C@H](O[C@H]2[C@H](O)[C@@H](O[C@H]3O[C@H](CO)[C@@H](O)[C@H](N)[C@H]3O)[C@H](N)C[C@@H]2N)[C@H](O)[C@@H](O)[C@@H]1O", "note": "[Kanamycin]", "values": [
      {"measurement": "escape proportion", "setting": "[1]; selection of transgenic shoots", "value": "80-90%"},
      {"measurement": "Escapes per green shoots", "setting": "[1]; [7]", "value": "52/59"},
      {"measurement": "Escapes per green shoots %", "setting": "[1]; [7]", "value": 88, "unit": "%"},
      {"measurement": "GUS positive per all explants", "setting": "[1]; [7]", "value": "7/182"},
      {"measurement": "GUS positive per all explants %", "setting": "[1]; [7]", "value": 4, "unit": "%"},
      {"measurement": "Green shoots per all explants", "setting": "[1]; [7]", "value": "59/182"},
      {"measurement": "Green shoots per all explants %", "setting": "[1]; [7]", "value": 32, "unit": "%"}
    ]},
    {"smiles": "O=C(O)Cc1c[nH]c2ccccc12", "note": "[IAA, indole-3-acetic acid]", "values": [
      {"measurement": "effect on shoot regeneration relative to BAP and NAA", "setting": "explants of turnip rape; data not shown", "value": "less effective than BAP and NAA"}
    ]},
    {"smiles": "O=[N+]([O-])[O-].[Ag+]", "note": "[AgNO3, silver nitrate]", "values": [
      {"measurement": "Average %", "setting": "[2]; 5 mg/l AgNO3", "value": 29.5, "unit": "%"},
      {"measurement": "GUS +/all %", "setting": "[2]; 5 mg/l AgNO3, cv. Sisu", "value": 27.1, "unit": "%"},
      {"measurement": "GUS +/all", "setting": "[2]; 5 mg/l AgNO3, cv. Sisu, 4 days after co-cultivation", "value": "19/70"},
      {"measurement": "GUS +/all", "setting": "[2]; 5 mg/l AgNO3, cv. Valtti", "value": "14/37"},
      {"measurement": "GUS +/all %", "setting": "[2]; 5 mg/l AgNO3, cv. Valtti", "value": 37.8, "unit": "%"},
      {"measurement": "Average %", "setting": "[2]; 10 mg/l AgNO3", "value": 37.6, "unit": "%"},
      {"measurement": "GUS +/all", "setting": "[2]; 10 mg/l AgNO3, cv. Sisu", "value": "15/53"},
      {"measurement": "GUS +/all %", "setting": "[2]; 10 mg/l AgNO3, cv. Sisu", "value": 28.3, "unit": "%"},
      {"measurement": "GUS +/all", "setting": "[2]; 10 mg/l AgNO3, cv. Valtti", "value": "15/32"},
      {"measurement": "GUS +/all %", "setting": "[2]; 10 mg/l AgNO3, cv. Valtti", "value": 46.9, "unit": "%"},
      {"measurement": "Average %", "setting": "[2]; 15 mg/l AgNO3", "value": 37.6, "unit": "%"},
      {"measurement": "GUS +/all", "setting": "[2]; 15 mg/l AgNO3, cv. Sisu", "value": "17/40"},
      {"measurement": "GUS +/all %", "setting": "[2]; 15 mg/l AgNO3, cv. Sisu", "value": 42.5, "unit": "%"},
      {"measurement": "GUS +/all", "setting": "[2]; 15 mg/l AgNO3, cv. Valtti", "value": "14/43"},
      {"measurement": "GUS +/all %", "setting": "[2]; 15 mg/l AgNO3, cv. Valtti", "value": 32.6, "unit": "%"},
      {"measurement": "effect on transformation", "setting": "[2]; silver nitrate in the cultivation medium", "value": "does not have a negative effect on transformation"},
      {"measurement": "Shoot regeneration optimum concentration", "setting": "explants of turnip rape", "value": "5 to 10", "unit": "mg/L"},
      {"measurement": "effect of high concentrations on cultivated calli", "setting": "explants of turnip rape", "value": "browning and partial necrosis of cultivated calli"},
      {"measurement": "effect on Agrobacterium growth", "setting": "Agrobacterium", "value": "suppresses Agrobacterium growth"}
    ]}
  ]
}
